Source: patent US12234499B2, “Compositions, methods, systems and/or kits for detecting antimicrobial resistance in bacteria” (priority 2016, dated 2025)
Where two headings read alike, the source gives them in different places.

Tests used:
Experiment in all cases: Carbapenem MIC of study isolate
Assay type in all cases: cell-based
A. baumannii 0052 = conditions: Acinetobacter baumannii, OXA-58
E. coli G1693 = conditions: Escherichia coli, High AmpC, S12like (Table 2), High AmpC (Table 4.2)
E. cloacae G1693 = conditions: Enterobacter cloacae, IMP-8 (Table 4.1)
K. pneumoniae 0079 = conditions: Klebsiella pneumoniae, CTX-M-14, OmpK35 (Table 4.2 also DHA-1)
E. coli 0119 = conditions: Escherichia coli, NDM
E. aerogenes G1648 = conditions: Klebsiella aerogenes, High AmpC
P. aeruginosa G15557 = conditions: VIM-like
K. pneumoniae G1675 = conditions: Klebsiella pneumoniae, KPC-2, SHV-5-like
E. cloacae G1691 = conditions: Enterobacter cloacae; IMP-8-producing E. cloacae G1691
K. pneumoniae 0109 = conditions: Klebsiella pneumoniae, CTX-M-15, TEM-1, SHV-1
P. aeruginosa G15 = conditions: Pseudomonas aeruginosa, KPC-5
K. pneumoniae 0044 = conditions: Klebsiella pneumoniae, CTX-M-15, TEM-1, SHV-1
C. freundii G1706 = conditions: Citrobacter freundii, KPC
E. aerogenes G1614 = conditions: Klebsiella aerogenes, High AmpC
E. cloacae G1637 = conditions: Enterobacter cloacae, High AmpC
P. mirabilis 0155 = conditions: Proteus mirabilis, KPC
E. cloacae G1735 = conditions: Enterobacter cloacae
K. pneumoniae G1725 = conditions: Klebsiella pneumoniae, KPC
K. pneumoniae 0043 = conditions: Klebsiella pneumoniae, SHV-12, OmpK36
K. oxytoca G1640 = conditions: Klebsiella oxytoca, KPC
K. oxytoca 0147 = conditions: KPC
E. cloacae 0032 = conditions: Enterobacter cloacae, KPC-3, TEM-1
P. mirabilis G15185 = test system: P. mirabilis G15185
K. pneumoniae G157 = conditions: Klebsiella pneumoniae, KPC-8
P. aeruginosa G15019 = test system: P. aeruginosa G15019
K. pneumoniae G1685 = conditions: Klebsiella pneumoniae, CMY-2-like
E. coli 0086 = conditions: Escherichia coli, CTX-M-9
M. morganii G1751 = conditions: Morganella morganii, High AmpC
K. pneumoniae 0047 = conditions: Klebsiella pneumoniae, OmpK35
E. coli 0058 = conditions: Escherichia coli, ESBL
P. mirabilis 0156 = conditions: Proteus mirabilis, KPC
K. pneumoniae G1758 = conditions: Klebsiella pneumoniae, CLSI MHT negative control
E. coli G164 = conditions: Escherichia coli, High AmpC (Table 2), SHV-12-like (Table 4.2)
K. pneumoniae 0042 = conditions: Klebsiella pneumoniae, CTX-M-28, OmpK35, OmpK36
K. pneumoniae G158 = conditions: Klebsiella pneumoniae, KPC-8
K. ozaenae 0096 = conditions: KPC
E. coli 0137 = conditions: Escherichia coli, NDM-6
P. mirabilis G1745 = conditions: Proteus mirabilis, CMY, TEM-1-like
K. pneumoniae G1511 = test system: K. pneumoniae G1511
K. pneumoniae 0113 = conditions: Klebsiella pneumoniae, KPC-3
S. marcescens G153 = conditions: Serratia marcescens, KPC
A. baumannii G1734 = conditions: Acinetobacter baumannii, OXA-40
[1] = Pseudomonas aeruginosa, read-out: MIC
[2] = Klebsiella oxytoca, read-out: MIC
[3] = Proteus mirabilis, IMP-27, read-out: MIC
[4] = Pseudomonas aeruginosa, VIM-2, read-out: MIC
[5] = Klebsiella pneumoniae, KPC-4, read-out: MIC

For C[C@@H](O)[C@H]1C(=O)N2C(C(=O)O)=C(S[C@@H]3CN[C@H](C(=O)Nc4cccc(C(=O)O)c4)C3)[C@H](C)[C@H]12 [Ertapenem], the MIC (A. baumannii 0052) was > 1 µg/mL, the MIC (E. coli G1693) was > 1 µg/mL and the MIC (E. cloacae G1693) was 0.5 µg/mL. For the same compound, the MIC (K. pneumoniae 0079) was > 1 µg/mL, the MIC (E. coli 0119) was > 1 µg/mL and the MIC (E. aerogenes G1648) was > 1 µg/mL. For the same compound, the MIC (P. aeruginosa G15557; [1]) was > 1 µg/mL, the MIC (P. aeruginosa G15557; listed as ERT) was >1 µg/mL and the MIC (K. pneumoniae G1675) was > 1 µg/mL. The MIC (E. cloacae G1691) was > 1 µg/mL, the MIC (K. pneumoniae 0109) was > 1 µg/mL and the MIC (P. aeruginosa G15) was > 1 µg/mL. The MIC (K. pneumoniae 0044) was > 1 µg/mL, the MIC (C. freundii G1706) was 1 µg/mL and the MIC (E. aerogenes G1614) was > 1 µg/mL. The MIC (E. cloacae G1637) was > 1 µg/mL, the MIC (P. mirabilis 0155) was > 1 µg/mL and the MIC (E. cloacae G1735) was > 1 µg/mL. The MIC (K. pneumoniae G1725) was > 1 µg/mL, the MIC (K. pneumoniae 0043) was > 1 µg/mL and the MIC (K. oxytoca G1640) was > 1 µg/mL. The MIC (K. oxytoca 0147; listed as ERT) was >1 µg/mL, the MIC (K. oxytoca 0147; [2]) was > 1 µg/mL and the MIC (E. cloacae 0032) was > 1 µg/mL. For the same compound, the MIC (P. mirabilis G15185; IMP-27, listed as ERT) was >1 µg/mL, the MIC (P. mirabilis G15185; [3]) was > 1 µg/mL and the MIC (K. pneumoniae G157) was > 1 µg/mL. The MIC (P. aeruginosa G15019; [4]) was > 1 µg/mL, the MIC (P. aeruginosa G15019; VIM-2, listed as ERT) was >1 µg/mL and the MIC (K. pneumoniae G1685) was > 1 µg/mL. For the same compound, the MIC (E. coli 0086) was > 1 µg/mL, the MIC (M. morganii G1751) was > 1 µg/mL and the MIC (K. pneumoniae 0047) was > 1 µg/mL. For the same compound, the MIC (E. coli 0058) was > 1 µg/mL, the MIC (P. mirabilis 0156) was 0.5 µg/mL and the MIC (K. pneumoniae G1758) was > 1 µg/mL. The MIC (E. coli G164) was > 1 µg/mL, the MIC (K. pneumoniae 0042) was > 1 µg/mL and the MIC (K. pneumoniae G158) was > 1 µg/mL. For the same compound, the MIC (K. ozaenae 0096) was > 1 µg/mL, the MIC (E. coli 0137) was > 1 µg/mL and the MIC (P. mirabilis G1745) was ≤ 0.25 µg/mL. The MIC (K. pneumoniae G1511; KPC-4, listed as ERT) was >1 µg/mL, the MIC (K. pneumoniae G1511; [5]) was > 1 µg/mL and the MIC (K. pneumoniae 0113) was > 1 µg/mL. The MIC (S. marcescens G153) was > 1 µg/mL and the MIC (A. baumannii G1734) was > 1 µg/mL.

For C[C@@H](O)[C@H]1C(=O)N2C(C(=O)O)=C(S[C@@H]3CN[C@H](C(=O)N(C)C)C3)[C@H](C)[C@H]12 [Meropenem], the MIC (A. baumannii 0052) was 8 µg/mL, the MIC (E. coli G1693) was > 8 µg/mL and the MIC (E. cloacae G1693) was 0.5 µg/mL. For the same compound, the MIC (K. pneumoniae 0079) was > 8 µg/mL, the MIC (E. coli 0119) was > 8 µg/mL and the MIC (E. aerogenes G1648) was > 8 µg/mL. For the same compound, the MIC (P. aeruginosa G15557; [1]) was 4 µg/mL, the MIC (K. pneumoniae G1675) was > 8 µg/mL and the MIC (E. cloacae G1691) was 0.5 µg/mL. For the same compound, the MIC (K. pneumoniae 0109) was 8 µg/mL, the MIC (P. aeruginosa G15) was > 8 µg/mL and the MIC (K. pneumoniae 0044) was > 8 µg/mL. For the same compound, the MIC (C. freundii G1706) was 0.25 µg/mL, the MIC (E. aerogenes G1614) was > 8 µg/mL and the MIC (E. cloacae G1637) was > 8 µg/mL. For the same compound, the MIC (P. mirabilis 0155) was 8 µg/mL, the MIC (E. cloacae G1735) was > 8 µg/mL and the MIC (K. pneumoniae G1725) was > 8 µg/mL. The MIC (K. pneumoniae 0043) was > 8 µg/mL, the MIC (K. oxytoca G1640) was > 8 µg/mL and the MIC (K. oxytoca 0147; listed as MEM) was >8 µg/mL. For the same compound, the MIC (K. oxytoca 0147; [2]) was > 8 µg/mL, the MIC (E. cloacae 0032) was 2 µg/mL and the MIC (P. mirabilis G15185; IMP-27, listed as MEM) was >8 µg/mL. For the same compound, the MIC (P. mirabilis G15185; [3]) was > 8 µg/mL, the MIC (K. pneumoniae G157) was > 8 µg/mL and the MIC (P. aeruginosa G15019; [4]) was 4 µg/mL. The MIC (K. pneumoniae G1685) was > 8 µg/mL, the MIC (E. coli 0086) was > 8 µg/mL and the MIC (M. morganii G1751) was 4 µg/mL. The MIC (K. pneumoniae 0047) was > 8 µg/mL, the MIC (E. coli 0058) was 0.5 µg/mL and the MIC (P. mirabilis 0156) was 0.25 µg/mL. The MIC (K. pneumoniae G1758) was 1 µg/mL, the MIC (E. coli G164) was > 8 µg/mL and the MIC (K. pneumoniae 0042) was 4 µg/mL. For the same compound, the MIC (K. pneumoniae G158) was > 8 µg/mL, the MIC (K. ozaenae 0096) was > 8 µg/mL and the MIC (E. coli 0137) was > 8 µg/mL. The MIC (P. mirabilis G1745) was ≤ 0.125 µg/mL, the MIC (K. pneumoniae G1511; [5]) was 2 µg/mL and the MIC (K. pneumoniae 0113) was > 8 µg/mL. For the same compound, the MIC (S. marcescens G153) was > 8 µg/mL and the MIC (A. baumannii G1734) was > 8 µg/mL.

With C[C@@H](O)[C@H]1C(=O)N2C(C(=O)O)=C(SCCN=CN)C[C@H]12 [Imipenem] the MIC (A. baumannii 0052) was > 8 µg/mL, the MIC (E. coli G1693) was > 8 µg/mL and the MIC (E. cloacae G1693) was 4 µg/mL. For the same compound, the MIC (K. pneumoniae 0079) was > 8 µg/mL, the MIC (E. coli 0119) was > 8 µg/mL and the MIC (E. aerogenes G1648) was > 8 µg/mL. For the same compound, the MIC (P. aeruginosa G15557; [1]) was > 8 µg/mL, the MIC (P. aeruginosa G15557; listed as IPM) was >8 µg/mL and the MIC (K. pneumoniae G1675) was > 8 µg/mL. For the same compound, the MIC (E. cloacae G1691) was 4 µg/mL, the MIC (K. pneumoniae 0109) was 4 µg/mL and the MIC (P. aeruginosa G15) was > 8 µg/mL. The MIC (K. pneumoniae 0044) was > 8 µg/mL, the MIC (C. freundii G1706) was 2 µg/mL and the MIC (E. aerogenes G1614) was > 8 µg/mL. The MIC (E. cloacae G1637) was > 8 µg/mL, the MIC (P. mirabilis 0155) was > 8 µg/mL and the MIC (E. cloacae G1735) was > 8 µg/mL. For the same compound, the MIC (K. pneumoniae G1725) was > 8 µg/mL, the MIC (K. pneumoniae 0043) was > 8 µg/mL and the MIC (K. oxytoca G1640) was > 8 µg/mL. For the same compound, the MIC (K. oxytoca 0147; listed as IPM) was >8 µg/mL, the MIC (K. oxytoca 0147; [2]) was > 8 µg/mL and the MIC (E. cloacae 0032) was 4 µg/mL. The MIC (P. mirabilis G15185; [3]) was 8 µg/mL, the MIC (K. pneumoniae G157) was > 8 µg/mL and the MIC (P. aeruginosa G15019; [4]) was > 8 µg/mL. The MIC (P. aeruginosa G15019; VIM-2, listed as IPM) was >8 µg/mL, the MIC (K. pneumoniae G1685) was > 8 µg/mL and the MIC (E. coli 0086) was > 8 µg/mL. For the same compound, the MIC (M. morganii G1751) was 4 µg/mL, the MIC (K. pneumoniae 0047) was > 8 µg/mL and the MIC (E. coli 0058) was ≤ 0.25 µg/mL. For the same compound, the MIC (P. mirabilis 0156) was 8 µg/mL, the MIC (K. pneumoniae G1758) was 4 µg/mL and the MIC (E. coli G164) was > 8 µg/mL. The MIC (K. pneumoniae 0042) was 1 µg/mL, the MIC (K. pneumoniae G158) was > 8 µg/mL and the MIC (K. ozaenae 0096) was > 8 µg/mL. For the same compound, the MIC (E. coli 0137) was > 8 µg/mL, the MIC (P. mirabilis G1745) was 8 µg/mL and the MIC (K. pneumoniae G1511; [5]) was 4 µg/mL. For the same compound, the MIC (K. pneumoniae 0113) was > 8 µg/mL, the MIC (S. marcescens G153) was > 8 µg/mL and the MIC (A. baumannii G1734) was > 8 µg/mL.
